Experiments:
in vivo = details: rat; for AUC(0-inf) / AUC(0-t) / Cmax / half-life / MRT inf / Tmax: male, SD; for AUC(0-inf): AUCINF_pred; for AUC(0-t): AUClast; for half-life: HL_Lambda_z (T1/2); for MRT inf: MRTINF_pred
Protocol: Compounds tested were as follows: kinetin (MW=215.21); MTK-115 (MW=243.26); MTK-115D (MW=219.29); MTK-125A (MW=217.27); and MTK-63A (MW=203.24). Formulation concentrations were 0.2 mg/mL for IV delivery; 0.5 mg/mL for PO delivery. Dosing was as follows: IV: 1 mg/kg, 5 mL/kg; PO: 5 mg/kg, 10 mL/kg. Results are as follows:
Compounds were prepared in a formulation of 4% DMSO, 15% Solutol HS 15, 81% PBS and then administered to male SD rats via oral gavage at 5 mg/kg (n=3 per compound). Plasma draws were taken at 15m, 30m, 1 hr, 2 hr, 4 hr, 8 hr, and 24 hrs, then analyzed by mass spectrometry for presence of the compound. Data were then plotted, and AUC values calculated.

PINK1 = target: T1, PINK1 (Homo sapiens, UniProt Q9BXM7); assay: PINK1-specific mitophagy assay (FACS for lysosomal-positive mt-mKeima); type: cell-based
T1 construct: expressed in transfected cells; host or cells: HeLa cells, retroviral transduction; they also stably express FRB-Fis1, mt-mKeima and Parkin
T1 sequence (Q9BXM7 111-581 limits assumed): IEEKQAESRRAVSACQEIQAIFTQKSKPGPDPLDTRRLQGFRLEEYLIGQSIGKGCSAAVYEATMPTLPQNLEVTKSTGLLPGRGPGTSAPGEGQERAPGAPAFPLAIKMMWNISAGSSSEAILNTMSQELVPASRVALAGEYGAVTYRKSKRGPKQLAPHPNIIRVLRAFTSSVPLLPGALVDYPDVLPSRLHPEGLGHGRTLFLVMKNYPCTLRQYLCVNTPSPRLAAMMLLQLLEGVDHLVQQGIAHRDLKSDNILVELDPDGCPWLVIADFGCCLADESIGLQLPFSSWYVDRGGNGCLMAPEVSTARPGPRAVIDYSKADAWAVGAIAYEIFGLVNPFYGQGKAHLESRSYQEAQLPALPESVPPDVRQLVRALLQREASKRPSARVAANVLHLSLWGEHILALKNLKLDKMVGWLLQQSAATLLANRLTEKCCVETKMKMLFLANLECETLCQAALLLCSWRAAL
From the text: mt-mKeima was cloned into a pCHAC-MCS-1-IRES-MCS2 vector. PINK1D110-YFP-23FKBP wild-type was cloned into pRetroQ-AcGFP-C1 at NheI/XhoI sites by Gibson assembly kit. The HA-tag was removed, and stop codon introduced. Wild-type HeLa cells stably expressing FRB-Fis1, mt-mKeima, Parkin, and wild-type PINK1D110-YFP-23FKBP were generated using retroviral transduction as described previously. Flag/HA-receptors were stably expressed in these cells by lentivirus transduction as described previously then treated with varying concentrations (see Table 2) of the experimental compounds for 5 days, followed by 1 uM rapalog for 24 h. Cells were then resuspended in sorting buffer (145 mM NaCl, 5 mM KCl, 1.8 mM CaCl2, 0.8 mM MgCl2, 10 mM HEPES, 10 mM glucose, 0.1% BSA) containing […] DAPI. Analysis was performed using Summit software (v6.2.6.16198) on a Beckman Coulter MoFlo Astrios cell sorter. Measurements of lysosomal mt-mKeima were made using dual-excitation ratiometric pH measurements at 488 (pH7) and 561 (pH4) nm lasers with 620/29 nm and 614/20 nm emission filters, respectively. For each sample, 50,000 events were collected and subsequently gated for YFP/mt-mKeima double-positive cells that were DAPI-negative. Data were analysed using FlowJo (v10, Tree Star).

[1] = system: Parkin-expressing HeLa cells with intact wt PINK1; assay: Cytotoxicity experiments (DAPI stain, FACS); type: cell-based; details: 50 uM, 24 hrs, versus MTK-64, FIG. 6
Protocol: Compounds were incubated for 24 hrs at 50 uM in Parkin-expressing HeLa cells with intact wt PINK1. After 24 hrs, cells were DAPI stained according to standard protocols and assayed via FACS.

[2] = rapalog + experimental compound 12.5 uM
[3] = rapalog + experimental compound 25 uM
[4] = rapalog + experimental compound 50 uM

`C/C=C/CNc1nc(C)nc2[nH]cnc12` [MTK-63A] showed an AUC(0-inf) (in vivo; iv, 1 mg/kg) of 360 ng·h/mL, an AUC(0-t) (in vivo; iv, 1 mg/kg) of 359 ng·h/mL and a Cmax (in vivo; iv, 1 mg/kg) of 1140 ng/mL. For the same compound, the half-life (in vivo; iv, 1 mg/kg) was 7.8 min, the MRT inf (in vivo; iv, 1 mg/kg) was 10.2 min and the Tmax (in vivo; iv, 1 mg/kg, Tmax) was 4.8 min. The Tmax (in vivo; po, 5 mg/kg) was 18 min, the AUC(0-inf) (in vivo; po, 5 mg/kg) was 306 ng·h/mL and the AUC(0-t) (in vivo; po, 5 mg/kg) was 294 ng·h/mL. It also gave a Cmax (in vivo; po, 5 mg/kg) of 305 ng/mL, a half-life (in vivo; po, 5 mg/kg) of 97.8 min and an MRT inf (in vivo; po, 5 mg/kg) of 145 min. The Tmax (in vivo; po, 5 mg/kg, Tmax) was 15 min.

With `C/C=C/CNc1nc(C)nc2[nH]c(C)nc12` [MTK-115A] the “percentage of cells undergoing mitophagy” value (PINK1; [2]) was 7.26%, the “percentage of cells undergoing mitophagy” value (PINK1; [3]) was 7.76% and the “percentage of cells undergoing mitophagy” value (PINK1; [4]) was 8.41%. For the same compound, the Cmax (in vivo; po, 5 mg/kg) was 769 ng/mL, the MRT inf (in vivo; po, 5 mg/kg) was 175 min and the “oral PK, AUC versus comparator” value (in vivo; 5 mg/kg) was “substantial increase in AUC”.

In the case of `Cc1nc(NCc2ccco2)c2nc(C)[nH]c2n1` [MTK-115], the “percentage of cells undergoing mitophagy” value (PINK1; [2]) is reported as 13.4%, the “percentage of cells undergoing mitophagy” value (PINK1; [3]) is reported as 16% and the “percentage of cells undergoing mitophagy” value (PINK1; [4]) is reported as 18.4%. For the same compound, the Cmax (in vivo; iv, 1 mg/kg) was 1850 ng/mL, the half-life (in vivo; iv, 1 mg/kg) was 23.4 min and the MRT inf (in vivo; iv, 1 mg/kg) was 24.6 min. For the same compound, the Tmax (in vivo; iv, 1 mg/kg, Tmax) was 4.8 min, the AUC(0-inf) (in vivo; po, 5 mg/kg) was 5450 ng·h/mL and the AUC(0-t) (in vivo; po, 5 mg/kg) was 5300 ng·h/mL. The Cmax (in vivo; po, 5 mg/kg) was 1040 ng/mL, the half-life (in vivo; po, 5 mg/kg) was 69 min and the MRT inf (in vivo; po, 5 mg/kg) was 203 min. For the same compound, the Tmax (in vivo; po, 5 mg/kg, Tmax) was 240 min and the “toxicity versus mono-substituted comparator” value [1] was “substantial decrease in toxicity”.

For `c1coc(CNc2ncnc3[nH]cnc23)c1` [kinetin, reference compound], the AUC(0-inf) (in vivo; iv, 1 mg/kg) was 57 ng·h/mL, the AUC(0-t) (in vivo; iv, 1 mg/kg) was 56.8 ng·h/mL and the Cmax (in vivo; iv, 1 mg/kg) was 176 ng/mL. It also gave a half-life (in vivo; iv, 1 mg/kg) of 7.2 min, an MRT inf (in vivo; iv, 1 mg/kg) of 10.8 min and a Tmax (in vivo; iv, 1 mg/kg, Tmax) of 4.8 min. It also gave an AUC(0-inf) (in vivo; po, 5 mg/kg) of 130 ng·h/mL, an AUC(0-t) (in vivo; po, 5 mg/kg) of 122 ng·h/mL and a half-life (in vivo; po, 5 mg/kg) of 64.8 min. It also gave an MRT inf (in vivo; po, 5 mg/kg) of 79.2 min and a Tmax (in vivo; po, 5 mg/kg, Tmax) of 15 min.

For `CCCCNc1nc(C)nc2[nH]c(C)nc12` [MTK-115D], the “percentage of cells undergoing mitophagy” value (PINK1; [2]) was 16.7%, the “percentage of cells undergoing mitophagy” value (PINK1; [3]) was 18.1% and the “percentage of cells undergoing mitophagy” value (PINK1; [4]) was 18.6%. For the same compound, the “increase in activity (mitophagy)” value (PINK1; versus MTX-63H (hydrogen instead of methyl at R3), FIG. 5) was about 40%, the AUC(0-inf) (in vivo; iv, 1 mg/kg) was 470 ng·h/mL and the AUC(0-t) (in vivo; iv, 1 mg/kg) was 469 ng·h/mL. It also gave a Cmax (in vivo; iv, 1 mg/kg) of 1440 ng/mL, a half-life (in vivo; iv, 1 mg/kg) of 7.2 min and an MRT inf (in vivo; iv, 1 mg/kg) of 10.2 min. For the same compound, the Tmax (in vivo; iv, 1 mg/kg, Tmax) was 4.8 min, the half-life (in vivo; po, 5 mg/kg) was 39.6 min and the MRT inf (in vivo; po, 5 mg/kg) was 182 min.

From patent US11414419B2, “Substituted purines for the treatment of neurodegenerative and mitochondrial diseases” (Mitokinin, Inc., priority 2017, dated 2022)
